Assay results: ChEMBL document CHEMBL1201862, “PubChem BioAssay data set” (2004)
Active and inactive are the calls of the source.

How the values were obtained:
[1] = system: CHO-K1; assay: (§1) Counterscreen for antagonists of the orexin 1 receptor (OX1R; HCRTR1): Homogeneous time resolved fluorescence (HTRF)-based cell-based dose response assay to identify antagonists of the parental CHO-K1 cell line. [Related pubchem assays (depositor defined):AID434989, AID435008, AID463079, AID485270, AID492963, AID492964, AID492965, AID493232, AID504699, AID504701]; format: functional; settings: Cricetulus griseus
[2] = as §1, with “Fluorescence-based” for “Homogeneous time resolved fluorescence (HTRF)-based”, “cell-based high throughput” for “cell-based”, “CHO” for “CHO-K1”; format: functional
[3] = molecular target: T1, Orexin/Hypocretin receptor type 1 (Homo sapiens, UniProt O43613); assay: Homogeneous Time Resolved Fluorescence (HTRF)-based cell-based high throughput dose response assay for antagonists of the orexin 1 receptor (OX1R; HCRTR1). [Related pubchem assays (depositor defined):AID434989, AID435008, AID463079, AID485270, AID492963, AID492964, AID492965, AID493232, AID504717, AID504718]; format: functional
T1 sequence (O43613 whole entry): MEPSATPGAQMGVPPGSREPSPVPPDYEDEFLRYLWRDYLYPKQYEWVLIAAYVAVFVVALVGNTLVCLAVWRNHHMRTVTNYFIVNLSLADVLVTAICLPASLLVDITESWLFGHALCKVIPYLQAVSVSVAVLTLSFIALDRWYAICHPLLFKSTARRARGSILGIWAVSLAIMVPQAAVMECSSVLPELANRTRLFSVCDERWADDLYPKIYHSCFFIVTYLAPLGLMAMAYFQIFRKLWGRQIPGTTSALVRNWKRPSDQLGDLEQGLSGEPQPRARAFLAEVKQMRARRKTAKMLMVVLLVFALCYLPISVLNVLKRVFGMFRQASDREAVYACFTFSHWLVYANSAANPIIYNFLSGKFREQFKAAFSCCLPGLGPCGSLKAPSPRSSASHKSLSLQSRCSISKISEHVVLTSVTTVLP

[4] = molecular target: T1, Orexin/Hypocretin receptor type 1; assay: Fluorescence-based cell-based high throughput dose response assay for antagonists of the orexin 1 receptor (OX1R; HCRTR1). [Related pubchem assays (depositor defined):AID434989, AID435008, AID463079, AID485270, AID492963, AID492964, AID492965, AID493232, AID504717, AID504718]; format: functional
[5] = molecular target: T2, Orexin receptor type 2 (Homo sapiens, UniProt O43614); assay: Counterscreen assay for antagonists of the orexin 1 receptor (OX1R; HCRTR1): Fluorescence-based cell-based dose response assay for antagonists of the orexin 2 receptor (OX2R; HCRTR2), run by assay provider.; format: functional
T2 sequence (O43614 whole entry): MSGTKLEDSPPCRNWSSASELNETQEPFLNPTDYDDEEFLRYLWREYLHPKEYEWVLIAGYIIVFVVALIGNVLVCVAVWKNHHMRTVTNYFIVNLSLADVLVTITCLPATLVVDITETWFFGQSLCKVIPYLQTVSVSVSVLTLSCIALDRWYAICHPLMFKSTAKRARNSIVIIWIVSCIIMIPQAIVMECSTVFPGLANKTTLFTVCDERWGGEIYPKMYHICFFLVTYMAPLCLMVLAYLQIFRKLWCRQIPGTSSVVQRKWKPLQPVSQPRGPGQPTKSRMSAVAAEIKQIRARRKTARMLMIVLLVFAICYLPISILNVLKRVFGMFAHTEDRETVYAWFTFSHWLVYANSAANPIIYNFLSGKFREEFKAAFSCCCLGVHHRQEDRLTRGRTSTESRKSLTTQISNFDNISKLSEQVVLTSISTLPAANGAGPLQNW

[6] = molecular target: T2, Orexin receptor type 2; assay: Counterscreen assay for antagonists of the orexin 1 receptor (OX1R; HCRTR1): Homogeneous Time Resolved Fluorescence (HTRF)-based cell-based dose response assay for antagonists of the orexin 2 receptor (OX2R; HCRTR2), run by assay provider.; format: functional
[7] = growth inhibition of yeast DHODH-expressing 3D7 parasites – SYBR Green, dry powder samples, dose response (AID 1159570); format: functional, cell-based;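 further: parasite growth measured after 72 hours of compound exposure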
[8] = P. falciparum Dd2 growth inhibitors, dose response, SYBR Green, cherry-picked samples (AID 1159567); format: functional, cell-based
[9] = Dd2 malaria parasite growth inhibition potency – SYBR Green, dry powder samples, dose response (AID 1159566); format: functional, cell-based;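 further: potency for growth inhibition with lower SYBR green DNA signal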
[10] = growth inhibition of PfATP4-mutant resistant parasites – NITD609-resistant line, SYBR Green, dry powder, dose response (AID 1159571); format: functional, cell-based;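 further: parasites synchronized at ring stage by sorbitol before testing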
[11] = molecular target: T3, fMet-Leu-Phe receptor (Homo sapiens, UniProt P21462); assay: formyl peptide receptor binders – dose response (AID 519); format: functional
T3 sequence (P21462 whole entry): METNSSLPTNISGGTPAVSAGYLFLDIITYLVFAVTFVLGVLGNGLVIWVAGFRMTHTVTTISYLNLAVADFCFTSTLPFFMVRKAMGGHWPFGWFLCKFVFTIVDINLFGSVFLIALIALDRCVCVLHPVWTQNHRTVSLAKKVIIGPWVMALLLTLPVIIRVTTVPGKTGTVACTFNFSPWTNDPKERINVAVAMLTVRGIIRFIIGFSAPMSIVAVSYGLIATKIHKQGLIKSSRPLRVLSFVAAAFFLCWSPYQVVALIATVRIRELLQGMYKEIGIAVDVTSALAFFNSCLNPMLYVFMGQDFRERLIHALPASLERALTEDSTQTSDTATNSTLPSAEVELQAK

[12] = viability of uninfected HEp-2 cells – cell-based, HTS, cytotoxicity control for RSV inhibitor project, dose response (AID 2410); format: functional; settings: human respiratory syncytial virus
[13] = molecular target: T4, Fatty acid synthase (Homo sapiens, UniProt P49327); assay: inhibition of human FAS-TE enzyme activity – biochemical, endpoint fluorescence intensity, uHTS hits, dose response (AID 624327); format: functional;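 further: fluorescence from hydrolysis of an O-methyl fluorescein acyl ester substrate by the enzyme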
[14] = molecular target: T4, Fatty acid synthase; assay: inhibition of human FAS-TE enzyme activity – biochemical, kinetic fluorescence intensity, dose response (AID 624326); format: functional;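 further: rate of fluorescence rise from hydrolysis of a fluorogenic O-methyl fluorescein ester substrate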
[15] = toxicity toward HepG2 liver cells – cell-based, plate reader, cherry-pick, antagonist series, cytotoxicity control, dose response (AID 743416); format: functional
[16] = blockers of bursicon-stimulated LGR2 cAMP reporter – cell-based, HEK293, CRE-luciferase reporter, cherry pick, set 2, dose response (AID 743343); format: functional;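 further: transfected cells were stimulated with diluted bursicon conditioned medium after compound addition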
[17] = blockade of melanocortin 4 receptor signaling – cell-based, plate reader, cherry pick, counter-screen for LGR2 antagonist project, dose response (AID 743444); format: functional;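 further: transfected HEK 293 cells stimulated with alpha-MSH peptide; potency of inhibitors of the alpha-MSH evoked signal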
[18] = viability loss in HEK293 cells – cell-based, plate reader, cherry-picked samples, cytotoxicity control, dose response (AID 743446); format: functional

T4 sequence (P49327 whole entry): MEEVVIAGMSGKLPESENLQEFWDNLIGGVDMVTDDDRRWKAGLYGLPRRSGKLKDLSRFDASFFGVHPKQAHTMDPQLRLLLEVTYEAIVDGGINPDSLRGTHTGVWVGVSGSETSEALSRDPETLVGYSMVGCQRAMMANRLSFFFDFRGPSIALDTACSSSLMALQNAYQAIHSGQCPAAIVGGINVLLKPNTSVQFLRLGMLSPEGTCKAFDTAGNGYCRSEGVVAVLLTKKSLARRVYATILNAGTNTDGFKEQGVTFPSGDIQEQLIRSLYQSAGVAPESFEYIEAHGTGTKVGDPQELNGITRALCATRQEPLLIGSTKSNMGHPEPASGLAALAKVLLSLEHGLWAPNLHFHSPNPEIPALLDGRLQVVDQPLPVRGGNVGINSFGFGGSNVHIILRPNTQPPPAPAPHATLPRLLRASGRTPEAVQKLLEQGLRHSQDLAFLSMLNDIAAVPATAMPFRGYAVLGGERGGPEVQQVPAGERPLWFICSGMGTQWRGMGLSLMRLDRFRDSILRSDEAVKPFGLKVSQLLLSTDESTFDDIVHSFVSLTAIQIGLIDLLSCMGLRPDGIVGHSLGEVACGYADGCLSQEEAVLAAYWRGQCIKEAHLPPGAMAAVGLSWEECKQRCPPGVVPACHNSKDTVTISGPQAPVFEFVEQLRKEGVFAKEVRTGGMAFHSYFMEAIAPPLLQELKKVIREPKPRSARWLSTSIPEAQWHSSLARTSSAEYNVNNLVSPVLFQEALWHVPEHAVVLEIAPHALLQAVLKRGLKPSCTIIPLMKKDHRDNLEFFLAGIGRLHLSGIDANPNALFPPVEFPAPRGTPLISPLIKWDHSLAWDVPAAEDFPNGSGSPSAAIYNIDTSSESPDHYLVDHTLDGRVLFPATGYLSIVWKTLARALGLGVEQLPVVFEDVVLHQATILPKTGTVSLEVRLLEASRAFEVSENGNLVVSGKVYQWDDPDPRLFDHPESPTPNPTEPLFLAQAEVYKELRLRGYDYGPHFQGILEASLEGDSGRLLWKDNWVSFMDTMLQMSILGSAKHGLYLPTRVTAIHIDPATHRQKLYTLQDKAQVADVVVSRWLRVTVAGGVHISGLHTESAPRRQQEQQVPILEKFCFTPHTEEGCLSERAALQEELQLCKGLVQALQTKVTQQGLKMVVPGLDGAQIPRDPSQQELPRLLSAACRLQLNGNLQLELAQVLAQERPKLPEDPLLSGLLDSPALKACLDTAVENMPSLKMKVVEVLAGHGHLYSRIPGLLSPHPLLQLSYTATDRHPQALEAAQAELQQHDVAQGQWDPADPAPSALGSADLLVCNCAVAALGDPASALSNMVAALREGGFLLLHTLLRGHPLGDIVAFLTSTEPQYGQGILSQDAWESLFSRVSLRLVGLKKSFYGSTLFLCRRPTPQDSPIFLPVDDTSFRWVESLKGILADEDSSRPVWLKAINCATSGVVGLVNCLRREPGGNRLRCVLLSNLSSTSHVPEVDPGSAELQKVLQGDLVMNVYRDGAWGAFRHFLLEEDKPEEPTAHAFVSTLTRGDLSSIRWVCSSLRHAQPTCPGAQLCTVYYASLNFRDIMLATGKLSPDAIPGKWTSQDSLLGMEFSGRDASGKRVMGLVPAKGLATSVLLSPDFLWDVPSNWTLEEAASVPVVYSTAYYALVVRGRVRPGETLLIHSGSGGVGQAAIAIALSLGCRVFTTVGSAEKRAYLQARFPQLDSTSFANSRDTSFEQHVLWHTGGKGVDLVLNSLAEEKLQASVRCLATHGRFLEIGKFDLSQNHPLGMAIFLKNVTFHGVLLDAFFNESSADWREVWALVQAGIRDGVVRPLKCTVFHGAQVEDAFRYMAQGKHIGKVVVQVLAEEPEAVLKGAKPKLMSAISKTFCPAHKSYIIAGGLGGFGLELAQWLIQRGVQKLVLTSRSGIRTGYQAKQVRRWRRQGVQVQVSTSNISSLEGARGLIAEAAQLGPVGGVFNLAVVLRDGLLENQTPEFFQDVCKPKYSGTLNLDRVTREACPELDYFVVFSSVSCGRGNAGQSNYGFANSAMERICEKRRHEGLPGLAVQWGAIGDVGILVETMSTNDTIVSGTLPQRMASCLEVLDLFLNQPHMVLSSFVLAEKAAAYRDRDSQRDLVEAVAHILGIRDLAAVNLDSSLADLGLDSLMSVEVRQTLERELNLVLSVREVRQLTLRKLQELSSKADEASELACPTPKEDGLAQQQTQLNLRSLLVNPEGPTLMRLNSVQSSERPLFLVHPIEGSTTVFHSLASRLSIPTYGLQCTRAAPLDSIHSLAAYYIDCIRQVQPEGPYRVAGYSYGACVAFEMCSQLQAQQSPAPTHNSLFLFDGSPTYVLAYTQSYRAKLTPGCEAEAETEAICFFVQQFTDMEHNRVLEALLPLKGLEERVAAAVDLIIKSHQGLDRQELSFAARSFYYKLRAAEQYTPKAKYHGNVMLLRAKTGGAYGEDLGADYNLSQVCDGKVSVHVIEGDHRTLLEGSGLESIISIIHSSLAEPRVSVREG

With `O=c1cc(CN2CC(O)Cc3ccc4ccccc4c32)nc2sccn12` (stereo unspecified) the IC50 [1] was > 66.2 µM (inactive), the IC50 [2] was > 49.7 µM (inactive) and the IC50 [3] was 4.12 µM (active). For the same compound, the IC50 [4] was 3.29 µM (active), the IC50 [5] was > 88.8 µM (inactive) and the IC50 [6] was > 50 µM (inactive).

For `COc1ccc(C#Cc2ccc3c(c2)O[C@H](CN(C)S(=O)(=O)c2ccccc2F)[C@@H](C)CN([C@H](C)CO)S3(=O)=O)cc1`, the AC50 [7] was 1.38 µM (active), the AC50 [8] was 1.7 µM (active) and the AC50 [9] was 1.12 µM (active). For the same compound, the AC50 [10] was 1.21 µM (active).

For `Cc1nc2c(C#N)cnn2c(O)c1Cc1ccccc1`, the Ki [11] was 27.4 µM (inactive).

In the case of `O=C(/C=C/c1cccc([N+](=O)[O-])c1)NCCSCc1cccc(Cl)c1`, the CC50 [12] was 14.3 µM (active), the IC50 [13] was 11.7 µM (active) and the IC50 [14] was 7.25 µM (active).

For `CN(Cc1cccs1)C(=O)Cn1cnc2cc([N+](=O)[O-])ccc2c1=O`, the IC50 [13] was 7.81 µM (active) and the IC50 [14] was 5.16 µM (active).

With `CCCCNC(=O)CCC(=O)NNc1nc2ccccc2c2nc(-c3ccccc3)nn12` the IC50 [1] was > 66.2 µM (inactive), the IC50 [2] was > 49.8 µM (inactive) and the IC50 [3] was 2.69 µM (active). The IC50 [4] was 7.27 µM (active), the IC50 [5] was > 88.8 µM (inactive) and the IC50 [6] was > 50 µM (inactive).

In the case of `COc1ccc2nc(-c3ccc(F)cc3)sc2c1`, the AC50 [15] was > 52 µM (inactive), the AC50 [16] was 2.55 µM (active) and the AC50 [17] was 2.35 µM (active). For the same compound, the AC50 [18] was > 52 µM (inactive).
